According to patent publication US20230085307A1, “PYRIDAZINONE COMPOUND AND HERBICIDE” (NISSAN CHEMICAL CORPORATION, priority 2019, published 2023):

Tests used:
[1] = tested on: redroot pigweed; test: Test Example 5: herbicidal effect by foliage application, plastic box (Table 20, symbol N); type: in vivo, redroot pigweed (Amaranthus retroflexus); conditions: foliage application, 320 g/ha
Method in brief: (§1)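 Plants sown in sterilized diluvial soil and grown 14 days in a greenhouse at 25° C to 30° C, then sprayed on the foliage with the compound's emulsion diluted in water to a predetermined herbicide amount. Injury to weeds and crops scored three weeks after application on a visual rating scale.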

[2] = tested on: Japanese bulrush; test: Test Example 2: herbicidal activity, application during weed generation under submerged conditions (Table 17, symbol B); type: in vivo, Japanese bulrush (Schoenoplectus juncoides); conditions: AAH 320 g/ha; application during weed generation, submerged conditions
Method in brief: (§2)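 Alluvial soil in Wagner pots was flooded to 4 cm depth and sown with the three weeds together; pots were kept in a greenhouse at 25° C. to 30° C. At the one to two leaf stage, an emulsion formulation diluted in water to a set rate went onto the water surface; scored three weeks later.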

[3] = tested on: late watergrass; test: Test Example 2: herbicidal activity, application during weed generation under submerged conditions (Table 17, symbol A); type: in vivo, late watergrass (Echinochloa oryzicola); conditions: AAH 320 g/ha; application during weed generation, submerged conditions
Method in brief: as §2

[4] = tested on: windgrass; test: Test Example 4: herbicidal effect by soil treatment (Table 19, symbol L); type: in vivo, windgrass (Apera spica-venti)
Method in brief: (§3)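 Seeds were sown in sterilized diluvial soil and covered with about 1.5 cm of soil. An emulsion formulation diluted with water to a predetermined herbicide amount was sprayed evenly onto the soil surface. Plants grew in a greenhouse at 25° C. to 30° C., and the effect was scored three weeks after application using criteria from an earlier test.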

[5] = tested on: oval-leafed pondweed; test: Test Example 2: herbicidal activity, application during weed generation under submerged conditions (Table 17, symbol C); type: in vivo, oval-leafed pondweed (Monochoria vaginalis); conditions: AAH 320 g/ha; application during weed generation, submerged conditions
Method in brief: as §2

[6] = tested on: persian speedwell; test: Test Example 5: herbicidal effect by foliage application, plastic box (Table 20, symbol R); type: in vivo, Persian speedwell (Veronica persica); conditions: foliage application, 320 g/ha
Method in brief: as §1

[7] = tested on: southern crabgrass; test: Test Example 5: herbicidal effect by foliage application, plastic box (Table 20, symbol F); type: in vivo, southern crabgrass (Digitaria ciliaris); conditions: foliage application, 320 g/ha
Method in brief: as §1

[8] = tested on: wild oat; test: Test Example 4: herbicidal effect by soil treatment (Table 19, symbol I); type: in vivo, wild oat (Avena fatua)
Method in brief: as §3

[9] = tested on: persian speedwell; test: Test Example 4: herbicidal effect by soil treatment (Table 19, symbol R); type: in vivo, Persian speedwell (Veronica persica)
Method in brief: as §3

[10] = tested on: Italian ryegrass; test: Test Example 4: herbicidal effect by soil treatment (Table 19, symbol K); type: in vivo, Italian ryegrass (Lolium multiflorum)
Method in brief: as §3

[11] = tested on: chickweed; test: Test Example 5: herbicidal effect by foliage application, plastic box (Table 20, symbol P); type: in vivo, common chickweed (Stellaria media); conditions: foliage application, 320 g/ha
Method in brief: as §1

[12] = tested on: lambsquarters; test: Test Example 5: herbicidal effect by foliage application, plastic box (Table 20, symbol O); type: in vivo, lambsquarters (Chenopodium album); conditions: foliage application, 320 g/ha
Method in brief: as §1

[13] = tested on: Italian ryegrass; test: Test Example 5: herbicidal effect by foliage application, plastic box (Table 20, symbol K); type: in vivo, Italian ryegrass (Lolium multiflorum); conditions: foliage application, 320 g/ha
Method in brief: as §1

[14] = tested on: Chinese sprangletop; test: Test Example 3: herbicidal effect by foliage application, Wagner pot (Table 18, symbol D); type: in vivo, chinese sprangletop (Leptochloa chinensis); conditions: 320 g/ha
Method in brief: (§4)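 Plants were sown in alluvial soil held under 0.1–0.5 cm standing water and grown 14 days in a greenhouse at 25–30 °C. An emulsifiable formulation, water-diluted to the set dose, was then sprayed onto the foliage, and effects were scored three weeks later using previously defined criteria.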

[15] = tested on: green foxtail; test: Test Example 5: herbicidal effect by foliage application, plastic box (Table 20, symbol G); type: in vivo, green foxtail (Setaria viridis); conditions: foliage application, 320 g/ha
Method in brief: as §1

[16] = tested on: blackgrass; test: Test Example 5: herbicidal effect by foliage application, plastic box (Table 20, symbol J); type: in vivo, blackgrass (Alopecurus myosuroides); conditions: foliage application, 320 g/ha
Method in brief: as §1

[17] = tested on: chickweed; test: Test Example 4: herbicidal effect by soil treatment (Table 19, symbol P); type: in vivo, common chickweed (Stellaria media)
Method in brief: as §3

[18] = tested on: windgrass; test: Test Example 5: herbicidal effect by foliage application, plastic box (Table 20, symbol L); type: in vivo, windgrass (Apera spica-venti); conditions: foliage application, 320 g/ha
Method in brief: as §1

[19] = tested on: velvetleaf; test: Test Example 5: herbicidal effect by foliage application, plastic box (Table 20, symbol M); type: in vivo, velvetleaf (Abutilon theophrasti); conditions: foliage application, 320 g/ha
Method in brief: as §1

[20] = tested on: blackgrass; test: Test Example 4: herbicidal effect by soil treatment (Table 19, symbol J); type: in vivo, blackgrass (Alopecurus myosuroides)
Method in brief: as §3

[21] = tested on: rice flat sedge; test: Test Example 3: herbicidal effect by foliage application, Wagner pot (Table 18, symbol E); type: in vivo, rice flat sedge (Cyperus iria); conditions: 320 g/ha
Method in brief: as §4

[22] = tested on: barnyard grass; test: Test Example 3: herbicidal effect by foliage application, Wagner pot (Table 18, symbol H); type: in vivo, barnyard grass (Echinochloa crus-galli); conditions: 320 g/ha
Method in brief: as §4

[23] = tested on: barnyard grass; test: Test Example 5: herbicidal effect by foliage application, plastic box (Table 20, symbol H); type: in vivo, barnyard grass (Echinochloa crus-galli); conditions: foliage application, 320 g/ha
Method in brief: as §1

[24] = tested on: wild oat; test: Test Example 5: herbicidal effect by foliage application, plastic box (Table 20, symbol I); type: in vivo, wild oat (Avena fatua); conditions: foliage application, 320 g/ha
Method in brief: as §1

[25] = tested on: barnyard grass; test: Test Example 4: herbicidal effect by soil treatment (Table 19, symbol H); type: in vivo, barnyard grass (Echinochloa crus-galli); conditions: 320 g/ha
Method in brief: as §3

[26] = tested on: velvetleaf; test: Test Example 4: herbicidal effect by soil treatment (Table 19, symbol M); type: in vivo, velvetleaf (Abutilon theophrasti); conditions: 320 g/ha
Method in brief: as §3

[27] = tested on: lambsquarters; test: Test Example 4: herbicidal effect by soil treatment (Table 19, symbol O); type: in vivo, lambsquarters (Chenopodium album); conditions: 320 g/ha
Method in brief: as §3

[28] = tested on: redroot pigweed; test: Test Example 4: herbicidal effect by soil treatment (Table 19, symbol N); type: in vivo, redroot pigweed (Amaranthus retroflexus); conditions: 320 g/ha
Method in brief: as §3

[29] = tested on: southern crabgrass; test: Test Example 4: herbicidal effect by soil treatment (Table 19, symbol F); type: in vivo, southern crabgrass (Digitaria ciliaris); conditions: 320 g/ha
Method in brief: as §3

[30] = tested on: green foxtail; test: Test Example 4: herbicidal effect by soil treatment (Table 19, symbol G); type: in vivo, green foxtail (Setaria viridis); conditions: 320 g/ha
Method in brief: as §3

[31] = amount of applied herbicide 320 g/ha
[32] = evaluated three weeks after application

CCCC(=O)Oc1c(C)nn(C)c(=O)c1-c1c(-c2ccc(OC(F)(F)F)cc2)sc2ccccc12 [1-032]
herbicidal effect grade, N: redroot pigweed ([1]; three weeks after application): 4 (Herbicidal rate of 70% or more and less than 90%) | herbicidal effect rating, B: Japanese bulrush [2]: 1 (Herbicidal rate of 5% or more and less than 20%) | herbicidal effect rating, A: late watergrass [3]: 0 (Herbicidal rate of 5% or less (almost no effect)) | herbicidal effect rating, L: windgrass [4, 31]: 0 (Herbicidal rate of 5% or less (almost no effect)) | herbicidal effect rating, C: oval-leafed pondweed [5]: 3 (Herbicidal rate of 40% or more and less than 70%) | herbicidal effect grade, R: persian speedwell ([6]; three weeks after application): 5 (Herbicidal rate of 90% or more (almost completely withered)) | herbicidal effect grade, F: southern crabgrass ([7]; three weeks after application): 0 (Herbicidal rate of 5% or less (almost no effect)) | herbicidal effect rating, I: wild oat [8, 31]: 0 (Herbicidal rate of 5% or less (almost no effect)) | herbicidal effect rating, R: persian speedwell [9, 31]: 5 (Herbicidal rate of 90% or more (almost completely withered)) | herbicidal effect rating, K: Italian ryegrass [10, 31]: 4 (Herbicidal rate of 70% or more and less than 90%) | herbicidal effect grade, P: chickweed ([11]; three weeks after application): 5 (Herbicidal rate of 90% or more (almost completely withered)) | herbicidal effect grade, O: lambsquarters ([12]; three weeks after application): 5 (Herbicidal rate of 90% or more (almost completely withered)) | herbicidal effect grade, K: Italian ryegrass ([13]; three weeks after application): 3 (Herbicidal rate of 40% or more and less than 70%) | herbicidal effect on D (Chinese sprangletop), rating 0-5 [14]: 0 (Herbicidal rate of 5% or less (almost no effect)) | herbicidal effect grade, G: green foxtail ([15]; three weeks after application): 4 (Herbicidal rate of 70% or more and less than 90%) | herbicidal effect grade, J: blackgrass ([16]; three weeks after application): 2 (Herbicidal rate of 20% or more and less than 40%) | herbicidal effect rating, P: chickweed [17, 31]: 3 (Herbicidal rate of 40% or more and less than 70%) | herbicidal effect grade, L: windgrass ([18]; three weeks after application): 0 (Herbicidal rate of 5% or less (almost no effect)) | herbicidal effect grade, M: velvetleaf ([19]; three weeks after application): 5 (Herbicidal rate of 90% or more (almost completely withered)) | herbicidal effect rating, J: blackgrass [20, 31]: 0 (Herbicidal rate of 5% or less (almost no effect)) | herbicidal effect on E (rice flat sedge), rating 0-5 [21]: 5 (Herbicidal rate of 90% or more (almost completely withered)) | herbicidal effect on H (barnyard grass), rating 0-5 [22]: 4 (Herbicidal rate of 70% or more and less than 90%) | herbicidal effect grade, H: barnyard grass ([23]; three weeks after application): 3 (Herbicidal rate of 40% or more and less than 70%) | herbicidal effect grade, I: wild oat ([24]; three weeks after application): 0 (Herbicidal rate of 5% or less (almost no effect))

COCCOCOc1c(C)nn(C)c(=O)c1-c1c(-c2ccc(OCC#N)cc2)sc2ccc(F)cc12 [2-067]
herbicidal effect on N: redroot pigweed [1, 32]: 5 (Herbicidal rate of 90% or more (almost completely withered)) | herbicidal effect rating, B: Japanese bulrush [2]: 0 (Herbicidal rate of 5% or less (almost no effect)) | herbicidal effect rating, A: late watergrass [3]: 2 (Herbicidal rate of 20% or more and less than 40%) | herbicidal effect rating, L: windgrass ([4]; 320 g/ha): 0 (Herbicidal rate of 5% or less (almost no effect)) | herbicidal effect rating, C: oval-leafed pondweed [5]: 0 (Herbicidal rate of 5% or less (almost no effect)) | herbicidal effect rating, H: barnyard grass [25]: 0 (Herbicidal rate of 5% or less (almost no effect)) | herbicidal effect on R: persian speedwell [6, 32]: 5 (Herbicidal rate of 90% or more (almost completely withered)) | herbicidal effect on F: southern crabgrass [7, 32]: 3 (Herbicidal rate of 40% or more and less than 70%) | herbicidal effect rating, M: velvetleaf [26]: 0 (Herbicidal rate of 5% or less (almost no effect)) | herbicidal effect rating, O: lambsquarters [27]: 3 (Herbicidal rate of 40% or more and less than 70%) | herbicidal effect rating, I: wild oat ([8]; 320 g/ha): 0 (Herbicidal rate of 5% or less (almost no effect)) | herbicidal effect rating, R: persian speedwell ([9]; 320 g/ha): 3 (Herbicidal rate of 40% or more and less than 70%) | herbicidal effect rating, K: Italian ryegrass ([10]; 320 g/ha): 0 (Herbicidal rate of 5% or less (almost no effect)) | herbicidal effect on P: chickweed [11, 32]: 4 (Herbicidal rate of 70% or more and less than 90%) | herbicidal effect on O: lambsquarters [12, 32]: 4 (Herbicidal rate of 70% or more and less than 90%) | herbicidal effect rating, N: redroot pigweed [28]: 3 (Herbicidal rate of 40% or more and less than 70%) | herbicidal effect on K: Italian ryegrass [13, 32]: 0 (Herbicidal rate of 5% or less (almost no effect)) | herbicidal effect on D (Chinese sprangletop), rating 0-5 [14]: 5 (Herbicidal rate of 90% or more (almost completely withered)) | herbicidal effect on G: green foxtail [15, 32]: 1 (Herbicidal rate of 5% or more and less than 20%) | herbicidal effect on J: blackgrass [16, 32]: 0 (Herbicidal rate of 5% or less (almost no effect)) | herbicidal effect rating, P: chickweed ([17]; 320 g/ha): 0 (Herbicidal rate of 5% or less (almost no effect)) | herbicidal effect rating, F: southern crabgrass [29]: 0 (Herbicidal rate of 5% or less (almost no effect)) | herbicidal effect rating, G: green foxtail [30]: 0 (Herbicidal rate of 5% or less (almost no effect)) | herbicidal effect on L: windgrass [18, 32]: 0 (Herbicidal rate of 5% or less (almost no effect)) | herbicidal effect on M: velvetleaf [19, 32]: 2 (Herbicidal rate of 20% or more and less than 40%) | herbicidal effect rating, J: blackgrass ([20]; 320 g/ha): 0 (Herbicidal rate of 5% or less (almost no effect)) | herbicidal effect on E (rice flat sedge), rating 0-5 [21]: 3 (Herbicidal rate of 40% or more and less than 70%) | herbicidal effect on H (barnyard grass), rating 0-5 [22]: 4 (Herbicidal rate of 70% or more and less than 90%) | herbicidal effect on H: barnyard grass [23, 32]: 1 (Herbicidal rate of 5% or more and less than 20%) | herbicidal effect on I: wild oat [24, 32]: 0 (Herbicidal rate of 5% or less (almost no effect))
